Laboratory results from PubChem BioAssay AID1259407 (Chemical Carcinogenesis Research Information System (CCRIS), 2018).
Calls of active or inactive are those of the source. How the calls were made is not given here.

Test system: CCRIS mutagenicity, Ames/micronucleus/aberration tests
Experiment: CCRIS mutagenicity studies
Conditions: Test System: AMES SALMONELLA TYPHIMURIUM
[1] = Strain/Indicator: TA98, Metabolic Activation: NONE, Method: STANDARD PLATE
[2] = Strain/Indicator: TA100, Metabolic Activation: RAT, LIVER, S-9, AROCLOR 1254, Method: STANDARD PLATE

Structure (SMILES): O=c1oc2cc([N+](=O)[O-])ccc2c2ccccc12
- mutagenic call (Strain/Indicator: TA98(1,8-DNP6), Metabolic Activation: NONE, Method: MICROSUSPENSION): active; positive
- mutagenic call (Strain/Indicator: TA98(1,8-DNP6), Metabolic Activation: NONE, Method: PREINCUBATION): active; positive
- mutagenic call (Strain/Indicator: TA98(1,8-DNP6), Metabolic Activation: NONE, Method: STANDARD PLATE): active; positive
- mutagenic call (Strain/Indicator: TA98(NR), Metabolic Activation: NONE, Method: MICROSUSPENSION): active; positive
- mutagenic call (Strain/Indicator: TA98(NR), Metabolic Activation: NONE, Method: PREINCUBATION): active; positive
- mutagenic call (Strain/Indicator: TA98(NR), Metabolic Activation: NONE, Method: STANDARD PLATE): active; positive
- mutagenic call (Strain/Indicator: TA98(NR), Metabolic Activation: RAT LIVER S-9 (15%), Method: PREINCUBATION): active; positive
- mutagenic call (Strain/Indicator: TA98(NR), Metabolic Activation: RAT LIVER S-9, 3-METHYLCHOLANTHRENE, Method: PREINCUBATION): active; positive
- mutagenic call (Strain/Indicator: TA98(NR), Metabolic Activation: RAT LIVER S-9, BETA-NAPHTHOFLAVONE (15%), Method: PREINCUBATION): active; positive
- mutagenic call (Strain/Indicator: TA98(NR), Metabolic Activation: RAT LIVER S-9, PCB (15%), Method: PREINCUBATION): active; positive
- mutagenic call (Strain/Indicator: TA98(NR), Metabolic Activation: RAT LIVER S-9, PHENOBARBITAL (15%), Method: PREINCUBATION): active; positive
- mutagenic call (Strain/Indicator: TA98(NR), Metabolic Activation: RAT, LIVER, S-9, AROCLOR 1254, Method: STANDARD PLATE): active; positive
- mutagenic call (Strain/Indicator: TA98, Metabolic Activation: NONE, Method: MICROSUSPENSION): active; positive
- mutagenic call (Strain/Indicator: TA98, Metabolic Activation: NONE, Method: PREINCUBATION): active; positive
- mutagenic call [1]: active; positive
- mutagenic call (Strain/Indicator: TA98, Metabolic Activation: RAT, LIVER, S-9, AROCLOR 1254, Method: MICROSUSPENSION): active; positive
- mutagenic call (Strain/Indicator: TA98, Metabolic Activation: RAT, LIVER, S-9, AROCLOR 1254, Method: STANDARD PLATE): active; positive
- mutagenic call (Strain/Indicator: TA100, Metabolic Activation: NONE, Method: MICROSUSPENSION): active; positive
- mutagenic call (Strain/Indicator: TA100, Metabolic Activation: NONE, Method: PREINCUBATION): active; positive
- mutagenic call (Strain/Indicator: TA100, Metabolic Activation: NONE, Method: STANDARD PLATE): active; positive
- mutagenic call (Strain/Indicator: TA100, Metabolic Activation: RAT LIVER S-9, 3-METHYLCHOLANTHRENE (15%), Method: PREINCUBATION): active; positive
- mutagenic call (Strain/Indicator: TA100, Metabolic Activation: RAT, LIVER, S-9, AROCLOR 1254, Method: MICROSUSPENSION): active; positive
- mutagenic call [2]: active; positive
- mutagenic call (Strain/Indicator: TA1535, Metabolic Activation: NONE, Method: STANDARD PLATE): active; positive
- mutagenic call (Strain/Indicator: TA1535, Metabolic Activation: RAT, LIVER, S-9, AROCLOR 1254, Method: STANDARD PLATE): active; positive
- mutagenic call (Strain/Indicator: TA1537, Metabolic Activation: NONE, Method: STANDARD PLATE): active; positive
- mutagenic call (Strain/Indicator: TA1537, Metabolic Activation: RAT, LIVER, S-9, AROCLOR 1254, Method: STANDARD PLATE): active; positive
- mutagenic call (Strain/Indicator: TA1538, Metabolic Activation: NONE, Method: STANDARD PLATE): active; positive
- mutagenic call (Strain/Indicator: TA1538, Metabolic Activation: RAT, LIVER, S-9, AROCLOR 1254, Method: STANDARD PLATE): active; positive
- mutagenic call (Strain/Indicator: TA7001, Metabolic Activation: NONE, Method: PREINCUBATION): inactive; negative
- mutagenic call (Strain/Indicator: TA7001, Metabolic Activation: RAT LIVER S-9, 3-METHYLCHOLANTHRENE (15%), Method: PREINCUBATION): inactive; negative
- mutagenic call (Strain/Indicator: TA7002, Metabolic Activation: NONE, Method: PREINCUBATION): active; positive
- mutagenic call (Strain/Indicator: TA7002, Metabolic Activation: RAT LIVER S-9, 3-METHYLCHOLANTHRENE, Method: PREINCUBATION): active; positive
- mutagenic call (Strain/Indicator: TA7003, Metabolic Activation: NONE, Method: PREINCUBATION): inactive; negative
- mutagenic call (Strain/Indicator: TA7003, Metabolic Activation: RAT LIVER S-9, 3-METHYLCHOLANTHRENE, Method: PREINCUBATION): inactive; negative
- mutagenic call (Strain/Indicator: TA7004, Metabolic Activation: NONE, Method: PREINCUBATION): active; positive
- mutagenic call (Strain/Indicator: TA7004, Metabolic Activation: RAT LIVER S-9, 3-METHYLCHOLANTHRENE, Method: PREINCUBATION): active; positive
- mutagenic call (Strain/Indicator: TA7005, Metabolic Activation: NONE, Method: PREINCUBATION): active; positive
- mutagenic call (Strain/Indicator: TA7005, Metabolic Activation: RAT LIVER S-9, 3-METHYLCHOLANTHRENE, Method: PREINCUBATION): active; positive
- mutagenic call (Strain/Indicator: TA7006, Metabolic Activation: NONE, Method: PREINCUBATION): active; positive
- mutagenic call (Strain/Indicator: TA7006, Metabolic Activation: RAT LIVER S-9, 3-METHYLCHOLANTHRENE, Method: PREINCUBATION): active; positive

Structure (SMILES): O=C1C(=O)c2c(ccc3ccccc23)-c2ccccc21
- mutagenic call [1]: inactive; negative
- mutagenic call [2]: inactive; negative

Structure (SMILES): CC(C)CCC[C@@H](C)[C@H]1CC[C@H]2[C@@H]3CC4([C@H]5C[C@@H](Br)CC[C@]5(C)[C@H]3CC[C@]12C)S(=O)(=O)CCS4(=O)=O
- mutagenic call (Strain/Indicator: TA97A, Metabolic Activation: NONE): inactive; negative
- mutagenic call (Strain/Indicator: TA97A, Metabolic Activation: RAT, LIVER, S-9, AROCLOR 1254): active; positive
- mutagenic call (Strain/Indicator: TA98, Metabolic Activation: NONE): inactive; negative
- mutagenic call (Strain/Indicator: TA100, Metabolic Activation: NONE): inactive; negative
- mutagenic call (Strain/Indicator: TA100, Metabolic Activation: RAT, LIVER, S-9, AROCLOR 1254): inactive; negative
- mutagenic call (Strain/Indicator: TA102, Metabolic Activation: NONE): active; positive
- mutagenic call (Strain/Indicator: TA102, Metabolic Activation: RAT, LIVER, S-9, AROCLOR 1254): active; positive
- mutagenic call (Strain/Indicator: TA104, Metabolic Activation: NONE): active; positive
- mutagenic call (Strain/Indicator: TA104, Metabolic Activation: RAT, LIVER, S-9, AROCLOR 1254): active; positive
